The molecules below were run on compound 48/80-induced lethality in rats (assay: Protection of rats from compound 48/80-induced lethality). Settings: Rattus norvegicus, subcutaneous administration (sc).
Assay type: in vivo
Excerpt: Int. Pharmacodyn. Ther. 251, 39-51 (1981).
The term (sc) signifies subcutaneous administration.

| Compound | ED50 [mg/kg] |
| --- | --- |
| CCn1nnn(CCN2CCC(Cc3nc4ccccc4n3Cc3ccc(CO)o3)CC2)c1=O [1.07] | 0.04 |
| Cc1nc2sccn2c(=O)c1CCN1CCC(Cc2nc3ccccc3n2Cc2ccc(CO)o2)CC1 [1.08] | 0.01 |
| Cc1nc2ccccn2c(=O)c1CCN1CCC(Cc2nc3ccccc3n2Cc2ccc(CO)o2)CC1 [1.09] | 0.02 |
| Cc1nc2n(c(=O)c1CCN1CCC(Cc3nc4ccccc4n3Cc3ccc(CO)o3)CC1)CCS2 [1.10] | 0.01 |
| COc1ccc(CCN2CCC(Cc3nc4ccccc4n3Cc3ccc(CO)o3)CC2)cc1 [1.11] | 0.04 |
| CC(C)NC(=O)CCN1CCC(Cc2nc3ccccc3n2Cc2ccc(CO)o2)CC1 [1.12] | 0.01 |
| Cn1cccc1C(=O)NCCN1CCC(Cc2nc3ccccc3n2Cc2ccc(CO)o2)CC1 [1.15] | 0.04 |
| OCc1ccc(Cn2c(CC3CCN(CCNc4cnccn4)CC3)nc3ccccc32)o1 [1.22] | 0.04 |
| OCc1ccc(Cn2c(CC3CCN(CCNc4ncccn4)CC3)nc3ccccc32)o1 [1.23] | 0.02 |
| Cc1nc2sccn2c(=O)c1CCN1CCC(Nc2nc3cccnc3n2Cc2ccc(CO)o2)CC1 [2.09] | 0.01 |
| Cc1nc2ccccn2c(=O)c1CCN1CCC(Nc2nc3cccnc3n2Cc2ccc(CO)o2)CC1 [2.10] | 0.04 |
| Cc1cc2nc(C)c(CCN3CCC(Nc4nc5cccnc5n4Cc4ccc(CO)o4)CC3)c(=O)n2o1 [2.32] | 0.02 |
| Cc1nc2n(c(=O)c1CCN1CCC(Cc3nc4cccnc4n3Cc3ccc(CO)o3)CC1)CCCS2 [2.33] | 0.04 |
| CN1CCC(Nc2nc3ccccc3n2Cc2ccc(CO)o2)CC1 [3.03] | 0.02 |
| CCn1nnn(CCN2CCC(Nc3nc4ccccc4n3Cc3ccc(CO)o3)CC2)c1=O [3.13] | 0.04 |
| Cc1nc2n(c(=O)c1CCN1CCC(Nc3nc4ccccc4n3Cc3ccc(CO)o3)CC1)CCS2 [3.15] | 0.04 |
| Cc1nc2ccccn2c(=O)c1CCN1CCC(Nc2nc3ccccc3n2Cc2ccc(CO)o2)CC1 [3.17] | 0.04 |
| O=c1[nH]c2ccccc2n1CCN1CCC(Nc2nc3ccccc3n2Cc2ccc(CO)o2)CC1 [3.19] | 0.02 |
| Cc1nc2sccn2c(=O)c1CCN1CCC(Nc2nc3cncnc3n2Cc2ccc(CO)o2)CC1 [5.03] | 0.04 |
| CN1CCC(Nc2nc3cncnc3n2Cc2ccc(CO)o2)CC1 [5.04] | 0.02 |
| CN1CCC(Cc2nc3ccccc3n2Cc2ccc(CO)o2)CC1 [Co. No. 1.17, 5-[[2-[(1-methyl-4-piperidinyl)methyl]-1H-benzimidazol-1-yl]methyl]-2-furanmethanol] | 0.04 |
| O=C(O)C(=O)O.O=C(O)C(=O)O.O=C(O)C(=O)O.OCc1ccc(Cn2c(CC3CCN(CCNc4cccnn4)CC3)nc3ccccc32)o1 [Co. No. 1.24, 5-[[2-[[1-[2-(3-pyridazinylamino)ethyl]-4-piperidinyl]methyl]-1H-benzimidazol-1-yl]methyl]-2-furanmethanol ethanedioate (1:3)] | 0.02 |
| O=c1ccc(NCCN2CCC(Cc3nc4ccccc4n3Cc3ccc(CO)o3)CC2)n[nH]1 [Co. No. 1.25, 6-[[2-[4-[[1-[[5-(hydroxymethyl)-2-furanyl]methyl]-1H-benzimidazol-2-yl]methyl]-1-piperidinyl]ethyl]amino]-3(2H)-pyridazinone ethanedioate (2:5)] | 0.01 |
| OCc1ccc(Cn2c(CC3CCN(CCc4ccccn4)CC3)nc3cccnc32)o1 [Co. No. 2.35, 5-[[2-[[1-[2-(2-pyridinyl)ethyl]-4-piperidinyl]methyl]-3H-imidazo[4,5-b]-pyridin-3-yl]methyl]-2-furanmethanol (E)-2-butenedioate(2:3)] | 0.02 |
| OCc1ccc(Cn2c(NC3CCNCC3)nc3ccccc32)o1 [Co. No. 3.11, 5-[[2-(4-piperidinylamino)-1H-benzimidazol-1-yl]methyl]-2-furanamethanol] | 0.04 |
| CC(C)NC(=O)CCN1CCC(Nc2nc3ccccc3n2Cc2ccc(CO)o2)CC1 [Co. No. 3.12] | 0.04 |
| N#CCN1CCC(Nc2nc3ccccc3n2Cc2ccc(CO)o2)CC1 [Co. No. 3.22, 4-[[1-[[5-(hydroxymethyl)-2-furanyl]-methyl]-1H-benzimidazol-2-yl]amino]-1-piperidineacetonitrile] | 0.04 |
| O=[N+]([O-])c1cnccc1NCCN1CCC(Nc2nc3ccccc3n2Cc2ccc(CO)o2)CC1 [Co. No. 3.26, 5-[[2-[[1-[2-[(3-nitro-4-pyridinyl)amino]-ethyl]-4-piperidinyl]amino]-1H-benzimidazol-1-yl]methyl]-2-furanmethanol] | 0.04 |
| Cc1nc2n(c(=O)c1CCN1CCC(Nc3nc4ccccc4n3Cc3ccc(CO)o3)CC1)CCCS2 [Co. No. 3.31] | 0.04 |
| O=[N+]([O-])c1cnccc1NCCN1CCCC(Nc2nc3ccccc3n2Cc2ccc(CO)o2)CC1 (stereo not drawn) [Co. No. 4.14, 5-[[2-[[hexahydro-1-[2-[(3-nitro-4-pyridinyl)amino]ethyl]-1H-azepin-4-yl]amino]-1H-benzimidazol-1-yl]methyl]-2-furanmethanol hemihydrate] | 0.04 |

From patent US5272150A, “Hydroxyalkylfuranyl derivatives” (Janssen Pharmaceutica N.V., priority 1992, dated 1993)
